In ChEMBL document CHEMBL1130772, “New nonsteroidal androgen receptor modulators based on 4-(trifluoromethyl)-2(1H)-pyrrolidino[3,2-g] quinolinone” (Bioorg Med Chem Lett, 1998):

How the values were obtained:
[1] = molecular target: T1, Androgen receptor (Homo sapiens, UniProt P10275); assay: Binding affinity against hAR androgen receptor expressed in COS cells; assay type: cell-based
T1 sequence (P10275 whole entry): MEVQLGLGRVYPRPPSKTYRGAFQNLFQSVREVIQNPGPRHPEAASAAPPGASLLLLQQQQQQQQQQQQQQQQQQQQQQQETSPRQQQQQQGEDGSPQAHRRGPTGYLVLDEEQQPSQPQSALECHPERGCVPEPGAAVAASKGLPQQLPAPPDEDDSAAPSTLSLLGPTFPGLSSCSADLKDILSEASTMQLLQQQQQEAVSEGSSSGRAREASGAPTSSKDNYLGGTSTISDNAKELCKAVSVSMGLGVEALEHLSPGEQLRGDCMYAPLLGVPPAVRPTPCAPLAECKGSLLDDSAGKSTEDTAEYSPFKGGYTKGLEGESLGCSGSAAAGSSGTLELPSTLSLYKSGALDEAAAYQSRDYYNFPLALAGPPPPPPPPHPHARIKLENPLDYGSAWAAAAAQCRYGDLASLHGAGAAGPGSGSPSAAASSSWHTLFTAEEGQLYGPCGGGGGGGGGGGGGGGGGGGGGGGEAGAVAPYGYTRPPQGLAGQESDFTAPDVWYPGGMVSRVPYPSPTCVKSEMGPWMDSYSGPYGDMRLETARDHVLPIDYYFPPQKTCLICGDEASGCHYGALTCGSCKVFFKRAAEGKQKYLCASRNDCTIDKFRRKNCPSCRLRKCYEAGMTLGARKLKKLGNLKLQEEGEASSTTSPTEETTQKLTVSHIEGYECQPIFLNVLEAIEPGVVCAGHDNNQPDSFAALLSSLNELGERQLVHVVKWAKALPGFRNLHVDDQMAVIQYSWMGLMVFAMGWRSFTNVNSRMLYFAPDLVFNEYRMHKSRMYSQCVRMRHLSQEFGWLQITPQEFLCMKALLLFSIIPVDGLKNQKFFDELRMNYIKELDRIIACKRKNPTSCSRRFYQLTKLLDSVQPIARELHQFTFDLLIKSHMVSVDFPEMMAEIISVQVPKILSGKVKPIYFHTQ

[2] = molecular target: T1, Androgen receptor
Description: Antagonistic activity (IC50) against human androgen receptor (hAR) in co-transfected CV-1 cell

[3] = molecular target: T1, Androgen receptor; conditions: cv-1
Description: Agonistic activity against human androgen receptor (hAR) in co-transfected CV-1 cell

Compound | Ki [1] [nM] | IC50 [2] [nM] | EC50 [3]
CN1c2cc3c(cc2[C@H]2CCCC(C)(C)[C@H]21)c(C(F)(F)F)cc(=O)n3C | 59 | 27 | Not Active
CN1CCc2cc3c(C(F)(F)F)cc(=O)n(C)c3cc21 | 167 | 197 | Not Active
CC1(C)CCC[C@@H]2c3cc4c(C(F)(F)F)cc(O)nc4cc3N[C@@H]21 | 79 | 26 | Not Active
